Data as given in the supplement of paper PMC11061612.

How the values were obtained:
[1] = compound: CCc1c2c(nc3ccc(O)cc13)-c1cc3c(c(=O)n1C2)COC(=O)[C@]3(O)CC [SN-38]; settings: max 0.3 µM
Outline: (§1)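 Cancer cell lines in 1536-well plates (7.5 μl DMEM/F12 or RPMI, 10% FBS) were held 24 hours at 37°C and 5% CO2 and then dosed for 72 hours at a final DMSO of typically 0.2%. Viability was taken from CellTiter-Glo 2.0 luminescence, scaled between blank-well and DMSO-well means. Curves were fitted as two-parameter logistic models with a non-linear mixed effects model, from which the single-agent IC50 was taken.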

[2] = compound: CCN(CCO)CCCOc1ccc2c(Nc3cc(CC(=O)Nc4cccc(F)c4)[nH]n3)ncnc2c1 [AZD2811]; settings: max 1 µM
Outline: as §1

[3] = compound: CN(C)CCCOc1ccc(-c2ccc3ncc4c(c3c2)n(C2CCOCC2)c(=O)n4C)cn1 [AZD0156]
Outline: as §1

[4] = compound: Cc1cc2ncnn2cc1Nc1ncc2c(n1)n(C1CCOCC1)c(=O)n2C [AZD7648]; settings: max 10 µM
Outline: as §1

[5] = compound: COc1cc2ncnc(Nc3ccc(F)c(Cl)c3)c2cc1OCCCN1CCOCC1 [Gefitinib]; settings: max 10 µM
Outline: as §1

[6] = compound: C[C@@H](Nc1cc(F)cc(F)c1)c1cc(C(=O)N(C)C)cc2c(=O)cc(N3CCOCC3)oc12 [AZD8186]; settings: max 3 µM
Outline: as §1

[7] = compound: CC(=O)c1c(C)c2cnc(Nc3ccc(N4CCNCC4)cn3)nc2n(C2CCCC2)c1=O [Palbociclib]; settings: max 10 µM
Outline: as §1

[8] = compound: CC(=O)Nc1cccc(-n2c(=O)n(C3CC3)c(=O)c3c(Nc4ccc(I)cc4F)n(C)c(=O)c(C)c32)c1 [Trametinib]; settings: max 1 µM
Outline: as §1

[9] = compound: C[C@@H](Oc1cc(-c2cnn(C3CCNCC3)c2)cnc1N)c1c(Cl)ccc(F)c1Cl [Crizotinib]; settings: max 10 µM
Outline: as §1

[10] = compound: Cc1c2c(nn1C)CSCc1cc(n(C)n1)CSc1cc(c3ccccc3c1)OCCCc1c(C(=O)O)n(C)c3c-2c(Cl)ccc13 [AZD5991]; settings: max 1 µM
Outline: as §1

[11] = compound: C[C@@H](c1ccc2nccn2c1)n1nnc2ncc(-c3cnn(C)c3)nc21 [Savolitinib]; settings: max 1 µM
Outline: as §1

[12] = compound: O=C(c1cc(Cc2n[nH]c(=O)c3ccccc23)ccc1F)N1CCN(C(=O)C2CC2)CC1 [Olaparib]; settings: max 10 µM
Outline: as §1

[13] = compound: C=CCn1c(=O)c2cnc(Nc3ccc(N4CCN(C)CC4)cc3)nc2n1-c1cccc(C(C)(C)O)n1 [AZD1775]
Outline: as §1

[14] = compound: COc1nnc2ccc(N3CCC(c4ccc(OCCN5CCN(C)C(=O)[C@H]5C)cc4)CC3)nn12 [AZD5153]; settings: max 1 µM
Outline: as §1

[15] = compound: CN(CC[C@H](CSC1=CC=CC=C1)NC2=C(C=C(C=C2)S(=O)(=O)NC(=O)C3=CC=C(C=C3)N4CCC(CC4)[C@H](C5=CC=CC=C5C6=CC=C(C=C6)Cl)O)S(=O)(=O)C(F)(F)F)CCO [AZD4320]; settings: max 1 µM
Outline: as §1

[16] = compound: CC1(C)CCC(CN2CCN(c3ccc(C(=O)NS(=O)(=O)c4ccc(NCC5CCOCC5)c([N+](=O)[O-])c4)c(Oc4cnc5[nH]ccc5c4)c3)CC2)=C(c2ccc(Cl)cc2)C1 [Venetoclax]; settings: max 1 µM
Outline: as §1

[17] = compound: CS(=O)(=O)CCNCc1ccc(-c2ccc3ncnc(Nc4ccc(OCc5cccc(F)c5)c(Cl)c4)c3c2)o1 [Lapatinib]; settings: max 10 µM
Outline: as §1

[18] = compound: C[C@@H]1COCCN1C2=NC(=NC(=C2)C3(CC3)[S@](=N)(=O)C)C4=C5C=CNC5=NC=C4 [AZD6738]; settings: max 10 µM
Outline: as §1

[19] = compound: COc1cccc2c1C(=O)c1c(O)c3c(c(O)c1C2=O)C[C@@](O)(C(=O)CO)C[C@@H]3O[C@H]1C[C@H](N)[C@H](O)[C@H](C)O1 [Doxorubicin]; settings: max 1 µM
Outline: as §1

[20] = compound: CC(C)n1c(=O)n(C)c2cnc3cc(F)c(-c4ccc(OCCCN5CCCCC5)nc4)cc3c21 [AZD1390]; settings: max 0.3 µM
Outline: as §1

[21] = compound: CC1=CN2[C@@H](C1)C=NC3=CC(=C(C=C3C2=O)OC)OCCCCCOC4=C(C=C5C(=C4)N=C[C@@H]6CC(=CN6C5=O)C)OC [SG3199]; settings: max 0.001 µM
Outline: as §1

[22] = compound: CC1=C(C(=CC=C1)Cl)NC(=O)C2=CN=C(S2)NC3=CC(=NC(=N3)C)N4CCN(CC4)CCO [Dasatinib]; settings: max 2 µM
Outline: as §1

[23] = compound: Cc1nc(-c2cn3c(n2)-c2ccc(-c4cnn(C(C)(C)C(N)=O)c4)cc2OCC3)n(C(C)C)n1 [Taselisib]; settings: max 10 µM
Outline: as §1

[24] = compound: C1CN(CCC1(C(=O)N[C@@H](CCO)C2=CC=C(C=C2)Cl)N)C3=NC=NC4=C3C=CN4 [Capivasertib]
Outline: as §1

[25] = compound: COc1cc(Nc2ncc3c(n2)-c2ccc(Cl)cc2C(c2c(F)cccc2OC)=NC3)ccc1C(=O)O [Alisertib]; settings: max 10 µM
Outline: as §1

[26] = compound: COc1cccc(OCCCN)c1-c1cc(Nc2cnc(C#N)cn2)n[nH]1 [Prexasertib]; settings: max 1 µM
Outline: as §1

[27] = compound: Cn1cnc2c(F)c(Nc3ccc(Br)cc3Cl)c(C(=O)NOCCO)cc21 [Selumetinib]
Outline: as §1

| Cell Line | IC50, cell viability 72 h [1] [nM] | IC50, cell viability 72 h [2] [nM] | IC50, cell viability 72 h ([3]; max 3 µM) [nM] | IC50, cell viability 72 h [4] [nM] | IC50, cell viability 72 h [5] [nM] | IC50, cell viability 72 h [6] [nM] | IC50, cell viability 72 h [7] [nM] | IC50, cell viability 72 h [8] [nM] | IC50, cell viability 72 h [9] [nM] | IC50, cell viability 72 h [10] [nM] | IC50, cell viability 72 h [11] [nM] | IC50, cell viability 72 h [12] [nM] | IC50, cell viability 72 h ([13]; max 3 µM) [nM] | IC50, cell viability 72 h [14] [nM] | IC50, cell viability 72 h [15] [nM] | IC50, cell viability 72 h [16] [nM] | IC50, cell viability 72 h [17] [nM] | IC50, cell viability 72 h [18] [nM] | IC50, cell viability 72 h [19] [nM] | IC50, cell viability 72 h [20] [nM] | IC50, cell viability 72 h [21] [nM] | IC50, cell viability 72 h [22] [nM] | IC50, cell viability 72 h [23] [nM] | IC50, cell viability 72 h ([24]; max 10 µM) [nM] | IC50, cell viability 72 h [25] [nM] | IC50, cell viability 72 h [26] [nM] | IC50, cell viability 72 h ([27]; max 10 µM) [nM] | IC50, cell viability 72 h ([3]; max 1 µM) [nM] | IC50, cell viability 72 h ([13]; max 1 µM) [nM] | IC50, cell viability 72 h ([24]; max 3 µM) [nM] | IC50, cell viability 72 h ([27]; max 3 µM) [nM] |
| --- | --- | --- | --- | --- | --- | --- | --- | --- | --- | --- | --- | --- | --- | --- | --- | --- | --- | --- | --- | --- | --- | --- | --- | --- | --- | --- | --- | --- | --- | --- | --- |
| 786-0 (Kidney Carcinoma) | 23 | > 1000 | > 3000 | > 10000 | > 10000 | > 3000 | > 10000 | > 1000 | > 10000 | > 1000 | > 1000 | > 10000 | 392 | 523 | > 1000 | > 1000 | 6480 | 5550 | 571 | > 300 | > 1 | 396 | > 10000 | 4540 | > 10000 | 28.8 | > 10000 |  |  |  |  |
| AN3-CA (Endometrial Carcinoma) | > 300 | > 1000 | > 3000 | > 10000 | > 10000 | > 3000 | > 10000 | > 1000 | > 10000 | > 1000 | > 1000 | > 10000 | 1290 | > 1000 | > 1000 | > 1000 | > 10000 | > 10000 | > 1000 | > 300 | > 1 | > 2000 | 615 | 1650 | 1370 | 66.5 | > 10000 |  |  |  |  |
| AsPC-1 (Pancreatic Carcinoma) | > 300 | > 1000 | > 3000 | > 10000 | > 10000 | > 3000 | > 10000 | 866 | > 10000 | > 1000 | > 1000 | > 10000 | > 3000 | > 1000 | > 1000 | > 1000 | > 10000 | > 10000 | > 1000 | > 300 | > 1 | > 2000 | > 10000 | > 10000 | > 10000 | > 1000 | > 10000 |  |  |  |  |
| BALL-1 (B-Lymphoblastic Leukemia) | 1.57 | 865 | > 3000 | > 10000 | > 10000 | > 3000 | 1150 | > 1000 | 5240 | > 1000 | > 1000 | 6290 | 131 | 59 | 5.84 | 4.7 | > 10000 | 487 | 123 | > 300 | > 1 | > 2000 | > 10000 | 7830 | 84.9 | 5.12 | > 10000 |  |  |  |  |
| Calu-6 (Non-Small Cell Lung Carcinoma) | 93.4 | > 1000 | > 3000 | > 10000 | > 10000 | > 3000 | > 10000 | 72.4 | > 10000 | > 1000 | > 1000 | > 10000 | 784 | > 1000 | > 1000 | > 1000 | > 10000 | 4100 | > 1000 | > 300 | > 1 | > 2000 | > 10000 | > 10000 | 5690 | 48.1 | 6080 |  |  |  |  |
| Caov-3 (Ovarian Carcinoma) | 5.51 | 48.7 |  | > 10000 |  | > 3000 |  | > 1000 |  | > 1000 |  | > 10000 |  |  | > 1000 | > 1000 |  | 2740 | 316 |  | > 1 |  | 5610 |  | 30.5 | 35.5 |  | > 1000 | 453 | > 3000 | > 3000 |
| HSC-3 (Oral Cavity Carcinoma) | 18.5 | > 1000 | > 3000 | > 10000 | 6900 | > 3000 | > 10000 | 216 | 5820 | > 1000 | > 1000 | > 10000 | 1730 | 123 | > 1000 | > 1000 | 2310 | > 10000 | > 1000 | > 300 | > 1 | 877 | 2260 | 4550 | 3390 | 213 | > 10000 |  |  |  |  |
| HTC-C3 (Thyroid Gland Carcinoma) | > 300 | > 1000 | > 3000 | > 10000 | > 10000 | > 3000 | > 10000 | 31.8 | > 10000 | > 1000 | > 1000 | > 10000 | 2300 | 130 | > 1000 | > 1000 | > 10000 | 3090 | > 1000 | > 300 | > 1 | 128 | > 10000 | > 10000 | > 10000 | 128 | 941 |  |  |  |  |
